Structures can show the parent of a compound that is named as a salt.
Test: drug releasability test of liposomes in a shift reagent solution
Format: physicochemical
Procedure: After 1:10 dilution of the sample with a stop solution, the drug, not contained in the liposomes, was separated by ultracentrifugation to provide a sample solution. Separately, 100 μl of a VCR aqueous solution having a different concentration was taken out, to which 900 μl of water was added. Moreover, this solution was diluted with water at 1:10 to provide a reference solution for calibration curve. The sample solution and reference solution were subjected to quantitative determination under the HPLC conditions indicated before with respect to the VCR determination except that an injected amount was at 50 μl only in this determination method.
After dilution of the sample with a stop solution at 1:10, the drug, not contained in the liposomes, was separated by ultracentrifugation. 1 ml of a 0.1 mol/l dihydrogen sodium phosphate solution having a pH of 3.0 was added to and mixed with 1 ml of a supernatant of the sample obtained after the ultracentrifugation to provide a sample solution. Separately, 1 ml of a 0.1 mol/l dihydrogen sodium phosphate solution having a pH of 3.0 was added to and mixed with 1 ml of/a DXR solution having a different concentration to prepare a reference solution for calibration curve. The sample solution and reference solution were subjected to measurement under HPLC conditions indicated with respect to the DXR determination.
Release rate (%)=amount of released drug/total drug amount×100
Ammonium acetate was dissolved so as to make ammonium ion concentrations of 5, 20, 25, 50 and 100 mM and the pH of the solutions was adjusted to 7.0 by use of a 0.1 M sodium hydroxide test solution. Moreover, sodium chloride was added to the solutions so that an osmotic pressure thereof was made at 300 mOsm, thereby providing shift reagent solutions.
The liposomes shown in Preparatory Example 1 were diluted with the shift reagent solution at 1:10 and heated to 37° C. 2.5, 5, 10, 15 and 30 minutes after commencement of the heating, samples were taken out. It is to be noted that the samples were stored under ice cooling before use. The quantitative determination of released VCR was made according to the method described hereinbefore.
Ammonium acetate was dissolved so as to make an ammonium ion concentration of 50 mM, followed by controlling the pH of the solution at 4.0, 5.0, 6.0, 7.0 and 8.0 by use of a 1 M sodium hydroxide test solution. […]
The liposomes shown in Preparatory Example 1 were diluted with the shift reagent solution at 1:10 and heated at 37° C. […] The released VCR was quantitatively determined by the method set out hereinbefore. […]
The liposomes shown in Preparatory Example 1 were diluted with the shift reagent solution at 1:10 and heated at 37° C. […] The quantitative determination of the released VCR was made according to the method set out hereinbefore. […]

CC[C@]1(O)C[C@H]2CN(CCc3c([nH]c4ccccc34)[C@@](C(=O)OC)(c3cc4c(cc3OC)N(C=O)[C@H]3[C@@](O)(C(=O)OC)[C@H](OC(C)=O)[C@]5(CC)C=CCN6CC[C@]43[C@@H]65)C2)C1 [VCR, Vincristine sulfate]
VCR releasability versus pH of shift reagent solution (LIP1, 50 mM ammonium acetate, pH 4.0-8.0, 300 mOsm, 37° C.): promoted with increasing pH | VCR release versus osmotic pressure of shift reagent solution (LIP1, 50 mM ammonium acetate, pH 7.0, 100-750 mOsm, 37° C.): a smaller osmotic pressure of the shift reagent solution leads to more promoted release | VCR release with amino compounds as shift reagent (LIP2, 50 mM 2-aminoethanol, ethylenediamine or diethylamine, pH 7.4, 37° C.): can be released

COc1cccc2c1C(=O)c1c(O)c3c(c(O)c1C2=O)C[C@@](O)(C(=O)CO)C[C@@H]3O[C@H]1C[C@H](N)[C@H](O)[C@H](C)O1 [DXR, Doxorubicin hydrochloride]
DXR releasability (250 mM ethylenediamine/phosphate buffer solution pH 7.4, 37° C., 0-4 hours): could be released

From patent publication US20110223675A1, “DRUG RELEASE MEANS FROM LIPOSOMES AND METHOD FOR EVALUATING RELEASABILITY” (TERUMO KABUSHIKI KAISHA, priority 2008, published 2011)
